Molecular target: T1, HpDnaK (Hsp70) (Helicobacter pylori, UniProt P55994)
T1 construct: gene dnaK; overexpressed and purified full-length protein; native protein in cells for CETSA
T1 sequence (P55994 2-620): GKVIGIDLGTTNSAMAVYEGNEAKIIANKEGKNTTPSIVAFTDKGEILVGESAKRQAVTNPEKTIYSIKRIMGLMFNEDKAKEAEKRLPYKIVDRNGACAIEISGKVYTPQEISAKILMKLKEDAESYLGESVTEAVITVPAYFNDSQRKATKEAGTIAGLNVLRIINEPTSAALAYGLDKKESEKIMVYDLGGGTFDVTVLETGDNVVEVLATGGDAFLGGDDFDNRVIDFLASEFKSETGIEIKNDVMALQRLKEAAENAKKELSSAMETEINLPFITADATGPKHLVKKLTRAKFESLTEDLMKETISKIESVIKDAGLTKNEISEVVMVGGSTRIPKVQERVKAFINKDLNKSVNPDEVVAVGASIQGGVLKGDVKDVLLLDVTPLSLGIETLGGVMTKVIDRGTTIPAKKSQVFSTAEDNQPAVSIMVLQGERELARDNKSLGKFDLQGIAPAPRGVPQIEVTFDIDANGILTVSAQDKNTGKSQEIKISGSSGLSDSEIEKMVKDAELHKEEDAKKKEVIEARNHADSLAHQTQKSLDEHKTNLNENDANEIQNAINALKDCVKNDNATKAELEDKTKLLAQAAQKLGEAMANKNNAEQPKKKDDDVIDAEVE
Assay: ATPase assay, released phosphate
Format: biochemical
Details: no CBS; rate linear within 80 min

SMILES: Nc1ncnc2c1ncn2[C@@H]1O[C@H](COP(=O)(O)OP(=O)(O)OP(=O)(O)O)[C@@H](O)[C@H]1O [ATP]
- ATPase assay, released phosphate: rates of ATP hydrolysis measured by monitoring the amounts of released free phosphate
